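Tested at 5 concentrations; 48 h exposure; 96-well plates; endpoints linearly interpolated, else capped at highest concentration. The concentration for 50% growth inhibition is given as GI50.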 The source made the active and inactive calls. Rule as the data show it: active = GI50 up to about 1.1 µM and inactive = higher.
Columns and labels:
Experiment in all cases: growth of human tumour cells (NCI), 48 h
A549 = system: A549
ACHN = system: ACHN
BT-549 = system: BT-549
CAKI-1 = system: CAKI-1
COLO 205 = system: COLO 205
Hs-578T = system: Hs-578T
IGROV-1 = system: IGROV-1
KM12 = system: KM12
Malme-3M = system: Malme-3M
NCI-H226 = system: NCI-H226
NCI-H522 = system: NCI-H522
OVCAR-5 = system: OVCAR-5
OVCAR-8 = system: OVCAR-8
PC-3 = system: PC-3
SF-539 = system: SF-539
SK-MEL-28 = system: SK-MEL-28
UACC-257 = system: UACC-257
M14 = system: M14
SNB-75 = system: SNB-75

Measured: GI50

COC1(OC)CC(CO)(CNc2cc(Cl)nc(N)n2)C1
inactive: A549 > 100 µM | ACHN > 100 µM | BT-549 > 100 µM | CAKI-1 > 100 µM | COLO 205 > 100 µM | Hs-578T > 100 µM | IGROV-1 > 100 µM | KM12 > 100 µM | Malme-3M > 100 µM | NCI-H226 > 100 µM | NCI-H522 > 100 µM | OVCAR-5 > 100 µM | OVCAR-8 > 100 µM | PC-3 > 100 µM | SF-539 > 100 µM | SK-MEL-28 > 100 µM | UACC-257 39.1 µM

Cc1ccsc1/C=N/Nc1nncc2ccccc12
inactive: A549 96.4 µM | ACHN > 100 µM | BT-549 > 100 µM | CAKI-1 > 100 µM | COLO 205 > 100 µM | Hs-578T > 100 µM | IGROV-1 15.9 µM | KM12 > 100 µM | M14 > 100 µM | NCI-H226 > 100 µM | OVCAR-5 > 100 µM | OVCAR-8 > 100 µM | PC-3 34.3 µM | SK-MEL-28 > 100 µM | SNB-75 > 100 µM | UACC-257 > 100 µM

Cc1ccc(C(=O)Nc2ccc(S(=O)(=O)O)c3cc(S(=O)(=O)O)cc(S(=O)(=O)O)c23)cc1NC(=O)Nc1cc(C(=O)Nc2ccc(S(=O)(=O)O)c3cc(S(=O)(=O)O)cc(S(=O)(=O)O)c23)ccc1C
inactive: A549 > 87.5 µM | ACHN > 87.5 µM | BT-549 > 87.5 µM | CAKI-1 > 87.5 µM | IGROV-1 > 87.5 µM | M14 > 87.5 µM | Malme-3M > 87.5 µM | NCI-H226 > 87.5 µM | NCI-H522 > 87.5 µM | OVCAR-5 > 87.5 µM | OVCAR-8 > 87.5 µM | PC-3 > 87.5 µM | SK-MEL-28 > 87.5 µM | SNB-75 > 87.5 µM | UACC-257 > 87.5 µM

CCCNC(=O)c1cc(OC)c(OC)cc1NC(=O)C12CC3CC(CC(C3)C1)C2
inactive: A549 17.1 µM | ACHN 14.5 µM | BT-549 16.7 µM | CAKI-1 19.8 µM | COLO 205 24.3 µM | Hs-578T 19.8 µM | IGROV-1 22.9 µM | KM12 17.6 µM | M14 15.2 µM | Malme-3M 17.8 µM | NCI-H226 25.2 µM | NCI-H522 12.3 µM | OVCAR-5 20.2 µM | OVCAR-8 23.7 µM | PC-3 17.3 µM | SF-539 22.2 µM | SK-MEL-28 16.1 µM | UACC-257 17.6 µM

CC(=O)Oc1ccc(N2C(=O)C3c4[nH]c5ccccc5c4C4CCC(C(C)(C)C)CC4C3C2=O)cc1 (centres undefined)
inactive: A549 3.13 µM | ACHN 3.55 µM | BT-549 4.02 µM | CAKI-1 5.31 µM | COLO 205 4.71 µM | Hs-578T 2.31 µM | IGROV-1 5.97 µM | M14 4.01 µM | Malme-3M 6.56 µM | NCI-H226 12.7 µM | NCI-H522 4.45 µM | OVCAR-5 2.63 µM | OVCAR-8 3.84 µM | PC-3 2.79 µM | SF-539 5.01 µM | SK-MEL-28 3.76 µM | UACC-257 11.1 µM

COC(=O)C[C@H]1[C@]2(C)C3=C(C)[C@H](c4ccoc4)CC3O[C@@H]2[C@@H]2OC(=O)[C@]3(C)CCC(=O)[C@@]1(C)[C@@H]23 (some centres undefined)
inactive: A549 47.1 µM | ACHN > 100 µM | BT-549 51.5 µM | CAKI-1 52.5 µM | COLO 205 62.8 µM | Hs-578T 36.1 µM | IGROV-1 71.3 µM | KM12 > 100 µM | M14 41.6 µM | Malme-3M 40.4 µM | NCI-H522 14.5 µM | OVCAR-5 27.5 µM | OVCAR-8 44.8 µM | SK-MEL-28 32.5 µM | SNB-75 42.8 µM | UACC-257 61 µM

COC(=O)C1=C(C(=O)OC)C2CCC1CC2=O (centres undefined)
inactive: A549 > 100 µM | ACHN > 100 µM | BT-549 > 100 µM | CAKI-1 > 100 µM | COLO 205 50.9 µM | IGROV-1 > 100 µM | KM12 65.6 µM | M14 > 100 µM | Malme-3M > 100 µM | NCI-H226 > 100 µM | NCI-H522 70.6 µM | OVCAR-5 > 100 µM | OVCAR-8 > 100 µM | PC-3 > 100 µM | SF-539 > 100 µM | SK-MEL-28 > 100 µM | SNB-75 > 100 µM | UACC-257 > 100 µM

COc1ccc2c(-c3csc(-c4c[nH]c5ccc(Br)cc45)n3)c[nH]c2c1
inactive: A549 91.8 µM | ACHN 70 µM | BT-549 67.3 µM | CAKI-1 85.7 µM | COLO 205 54.1 µM | Hs-578T 74.1 µM | IGROV-1 81.5 µM | KM12 43.6 µM | M14 > 100 µM | Malme-3M 17.5 µM | NCI-H226 45.4 µM | NCI-H522 23.1 µM | OVCAR-5 42.8 µM | OVCAR-8 > 100 µM | PC-3 10.4 µM | SK-MEL-28 > 100 µM | UACC-257 88.9 µM

Reference: ChEMBL document CHEMBL1201862, “PubChem BioAssay data set” (2004)
